Laboratory results reported in US20240108610A1, “RECTAL ADMINISTRATION OF ROFLUMILAST FOR THE TREATMENT OF CROHN'S DISEASE” (King Abdulaziz University, priority 2022, published 2024).
Marks after values point to notes of the source that are not given here.

Columns and labels:
[1] = system: trinitrobenzenesulfonic acid (TNBS)-induced colitis; assay: Colonic length and macroscopic appearance in TNBS-induced chronic colitis; assay type: in vivo, rat
Method: (§1) Chronic colitis was induced by weekly rectal injections of increasing doses of TNBS over 6 weeks (15, 30, 45, 60, 60, and 60 mg from day 0 to day 35), as previously described (4,12). Briefly, after food deprivation for 24 h, rats were anesthetized with an intraperitoneal injection of 1% isoflurane. TNBS was dissolved in ethanol (50%) and instilled into the colon using a cannula (0.25 mL), and then the rats were held upside down for 3 min to prevent escape of the intracolonic TNBS. Roflumilast was dissolved in dimethyl sulfoxide and diluted in 0.5% carboxymethyl cellulose sodium to a final concentration of 5.0 mg·kg^−1·day^−1 as previously described (13). Five groups of rats (n=8) were established: normal control (NC group), TNBS-treated (TNBS group, positive control), and three TNBS-treated groups that received oral sulfasalazine (SS group, 500 mg/kg) (14), oral roflumilast (by gastric gavage, OR group, 5 mg/kg), or rectal roflumilast (RR group, 5 mg/kg). Treatments were administered once daily in a volume of 200 μL for 15 days starting 48 h after the induction of colitis (from day 37) (15), and the control rats received equal amounts of vehicle. At the end of the treatment period, the rats were evaluated with the colitis activity score. To detect the effects of the treatments on systemic inflammatory processes, blood was collected for measurements of the proinflammatory mediators TNF-α, IL-2, and IL-6. At the end of the 15-day treatment period, the rats were sacrificed by cervical dislocation, and the colon was isolated, cleaned of feces, and measured for weight and length. Colonic myeloperoxidase (MPO) activity and glutathione (GSH) and malonaldehyde (MDA) levels were measured. The colon was examined macroscopically for gross changes and microscopically in sections stained with hematoxylin and eosin (H&E), Masson trichrome, and Periodic Acid Schiff (PAS) stains as well as KI-67 and TNF-α immunostaining. After the rats were sacrificed, their colon was excised, and its length was measured. The appearance of the colon regarding edema, ulceration, and necrosis was evaluated (17).

IL-2 = assay: Serum IL-2 ELISA in TNBS-induced colitis; assay type: in vivo, rat; details: means±SE, n = 8
Method: as §1, with “Blood” for “After the rats were sacrificed, their colon”, “collected through cardiac puncture. The serum was obtained” for “excised,”, “stored at −80° C. until analysis. […]” for “its length was measured. The appearance of the colon regarding edema, ulceration, and necrosis was evaluated (17).”

[2] = oral; cited from earlier work
[3] = oral; cited from earlier work; remark: listed apart in the source
[4] = system: ovalbumin-induced asthmatic mice; details: inhaled; cited from earlier work
[5] = system: dextran sulphate sodium (DSS)-induced colitis; details: oral, 1 or 5 mg·kg−1·day−1, mice; cited from earlier work
[6] = system: DSS-induced ulcerative colitis; details: 5 mg/kg, male Wistar rats, cited from earlier work
[7] = system: TNBS-induced reduction in colon length; details: 1 and 5 mg-kg−1·day−1; another study (13); cited from earlier work
[8] = oral, once daily for 15 days, sulfasalazine 500 mg/kg, roflumilast 5 mg/kg
[9] = rectal, 5 mg/kg once daily for 15 days
[10] = oral, once daily for 15 days, SS 500 mg/kg, OR 5 mg/kg

Row | Compound | Colonic length [1, 8] | Colonic macroscopic appearance [1, 8] | Colonic macroscopic appearance [1, 9] | serum level of IL-2 (IL-2; [10]) | serum level of IL-2 (IL-2; [9]) | bioavailability [2] | side effects [3] | inflammation and histopathological changes [4] | numbers of neutrophils, eosinophils, and macrophages in the bronchoalveolar lavage fluid [4] | Colonic length [5] | colonic TNF-α production [5] | disease clinical score (weight loss, stool consistency, and hemorrhage) [5] | histological score [5] | colon length ([6]; compared with the DSS group) | histological scores ([6]; compared with the DSS group) | severity of colitis ([6]; compared with the DSS group) | weight loss ([6]; compared with the DSS group) | colon concentrations of TNF-α and NO, MPO activity, and inducible nitric oxide synthase gene expression [6] | TNBS-induced reduction in colon length [7] | elevated colonic concentration of TNF-α [7]
1 | O=C(Nc1c(Cl)cncc1Cl)c1ccc(OC(F)F)c(OCC2CC2)c1 [roflumilast] | more improvement than rectal roflumilast | moderate to marked improvement | mild improvement | 302.75 ± 11.32^g, h, i pg/mL | 363.87 ± 12.73^g pg/mL | ~80% | weight loss, headache, nausea, emesis, and diarrhea | substantially improved | decreased | dose-dependently improved | dose-dependently improved | dose-dependently improved | not improved | preserved | improved | diminished | decreased | decreased | partially reverses | decreases
2 | O=C(O)c1cc(/N=N/c2ccc(S(=O)(=O)Nc3ccccn3)cc2)ccc1O [sulfasalazine] | greatest effect | marked improvement |  | 257.97 ± 7.72^g pg/mL |  |  |  |  |  |  |  |  |  |  |  |  |  |  |  | 
